According to US12133900B2, “Synthesis and composition of amino acid linking groups conjugated to compounds used for the targeted imaging of tumors” (Purdue Research Foundation, priority 2013, dated 2024):

Experiments:
[1] = test system: folate receptor negative A549 tumor xenografts; assay: Whole body imaging and biodistribution, folate receptor-negative A549 tumor xenografts; type: in vivo, mice; conditions: for specificity for folate receptor (conclusion): FR-negative A549 xenografts
Experimental: Seven-week-old female nu/nu mice were inoculated subcutaneously with A549 cells (1.0×10^6/mouse in RPM11640 medium) on the shoulder. Growth of the tumors was measured in perpendicular directions every 2 days using a caliper (body weights were monitored on the same schedule), and the volumes of the tumors were calculated as 0.5×L×W^2 (L=longest axis and W=axis perpendicular to L in millimeters). Once tumors reached between 400 and 500 mm3 in volume, animals (6 mice/group) were intravenously injected with 10 nmol of OTL-0038 in phosphate buffered saline (100 μL). After 2.5 h, animals were sacrificed by CO2 asphyxiation. Whole body imaging (intact tumor) experiments were then performed using a Caliper IVIS Lumina II Imaging Station with Living Image 4.0 software (PerkinElmer Inc, MA). Settings for imaging:—lamp level: medium; excitation: 745 nm; emission: ICG (indocyanine green); epi illumination; binning: 4 (M), FOV=12.5; f-stop=2; acquisition time=1 s.
Following whole body imaging, animals were dissected and selected tissues (heart, lung, liver, spleen, kidneys, stomach, small intestine, large intestine, muscle, skin, tumor) were analyzed for fluorescence activity using IVIS imager as before. Settings for imaging:—lamp level: medium; excitation: 745 nm; emission: ICG; epi illumination; binning: 4 (M), FOV=12.5; f-stop=2; acquisition time=1 s.
(§1) Seven-week-old female nu/nu mice were inoculated subcutaneously with KB (1.0×10^6/mouse in RPM11640 medium), IGROV (5.0×10^6/mouse in 50% high concentrated matrigel+RPM11640 medium), SKOV3 (5.0×10^6/mouse in RPM11640 medium), OVCAR3 (5.0×10^6/mouse in RPM11640 medium), MDA-MB231 (1.0×10^6/mouse in RPM11640 medium), M109 (1.0×10^6/mouse in RPM11640 medium) or A549 cells (2.0×10^6/mouse in RPM11640 medium) on the shoulder. Growth of the tumors was measured in perpendicular directions every 2 days using a caliper (body weights were monitored on the same schedule), and the volumes of the tumors were calculated as 0.5×L×W^2 (L=longest axis and W=axis perpendicular to L in millimeters). Once tumors reached approximately 300-400 mm3 in volume, animals (3-5 mice/group) were intravenously injected with the compound of interest in PBS (for dose escalation in KB tumor model: 0.3-90 nmol, for time dependent in KB tumor model: 2 or 10 nmol, and for general whole body imaging and biodistribution for all tumor models: 2 nmol, in 100 μL in PBS per mouse). For whole body imaging and biodistribution studies, animals were euthanized 2 hours after administration of the compound of interest by CO2 asphyxiation. For time dependent studies, animals were imaged under anesthesia using isoflurane. Whole body imaging (intact tumor) experiments was then performed using a Caliper IVIS Lumina II Imaging Station with Living Image 4.0 software (PerkinElmer Inc, MA).
(§2) Following whole body imaging, animals were dissected and selected tissues (heart, lung, liver, spleen, kidneys, stomach, small intestine, large intestine, muscle, skin, and tumor) were analyzed for fluorescence activity using IVIS imager using same settings as in whole body imaging.

[2] = Toxicity in healthy nude mice; type: in vivo
Experimental: Seven-week-old healthy female nude mice (5 mice/group) were administered with 1 μmol of freshly prepared OTL-0038 or OTL-0039 dissolved in 100 μL of phosphate buffered saline via tail vein injection on day zero. Body weights and clinical observations were monitored prior to dosing and daily thereafter from day zero to 7. Any animals with a body weight loss of 20% or more over two consecutive days would be euthanized, but this was not necessary. The animals were euthanized by CO2 asphyxiation on day 7 and selected tissues (brain, heart, lung, liver, spleen, kidney, stomach, small intestine, large intestine, muscle, skin) were collected into vials containing 4% formalin. Formalin fixed tissues were sectioned into 10 μm thick sections and mounted onto Superfrost Plus™ slides (Fisher Scientific, Pittsburgh Pa.). After staining the slides with H&E, immunohistochemistry (IHC) analysis of the tissues was conducted to determine to the toxicity of OTL-0038 and OTL-0039.

[3] = test system: FR-positive SKOV3 tumor xenografts; assay: Imaging and biodistribution, SKOV3 ovarian xenograft; type: in vivo, mice; conditions: 2 nmol, 2 h
Experimental: as §1, §2

[4] = test system: breast cancer cells metastasized to lung; assay: Imaging, MDA-MB 231 metastatic model; type: in vivo, mice; conditions: 2 nmol, 2 h
Experimental: (§3) One million (1×106) of either L1210A or MDA-MB231 cancer cells per mouse (cancer cells/mouse) were administered via tail vein injection into the mice. Tumor growth was monitored every other day using a Caliper IVIS Lumina II Imaging Station with Living Image 4.0 software (PerkinElmer Inc.).

[5] = test system: FR-positive L1210A tumors; assay: Imaging and biodistribution, L1210A metastatic model (OTL38); type: in vivo, mice; conditions: 2 nmol, 2 h
Experimental: as §3, §2

## CC1(C)C(/C=C/C2=C(Oc3ccc(C[C@H](NC(=O)c4ccc(NCc5cnc6nc(N)[nH]c(=O)c6n5)cc4)C(=O)[O-])cc3)C(=C/C=C3\N(CCCCS(=O)(=O)[O-])c4ccc(S(=O)(=O)[O-])cc4C3(C)C)/CCC2)=[N+](CCCCS(=O)(=O)[O-])c2ccc(S(=O)(=O)[O-])cc21.[H+].[H+].[H+].[H+] [OTL-0038, Pte-Tyr-S0456]
[1]; 2 nmol i.v., 2 h
  tissue biodistribution: no fluorescence was observed in FR-negative tumors
  whole body imaging: accumulation: did not accumulated in the FR-negative tumors
[1]; 10 nmol i.v., 2.5 h
  whole body imaging: accumulation: did not accumulated in the folate receptor negative tumors
[1]
  specificity for folate receptor (conclusion): highly specific for folate receptor
[1]; listed as OTL38
  specificity for folate receptor (conclusion): highly specific for FR
[2]; 1 μmol (1000× clinical dose)
  toxicity (conclusion): not toxic to animals
[2]; 1 μmol tail vein
  skin colour immediately after the injection: became green
[2]; 1 μmol tail vein, day 0 to 7
  activity and behaviour: behaved normally throughout the study
  body weights over the course of the study: remained stable
[2]; 1 μmol tail vein, day 7
  lesions in tissues (IHC data): no lesions identified in any tissues
[3]
  ex-vivo tissue biodistribution: highest fluorescence intensities were observed in FR-positive tumors and kidneys
  tumor-to-normal tissue ratios: excellent tumor-to-normal tissue ratios
  whole body imaging: accumulation: accumulated mainly in the FR-positive SKOV3 tumor xenografts
[4]
  accumulation: mainly accumulated in the breast cancer cells metastasized to lung
[5]
  tumor-to-normal tissue ratios: excellent tumor-to-normal tissue ratios
  whole body imaging: accumulation: accumulated mainly in the FR-positive L1210A tumors metastasize to the liver, lung and spleen
